From patent publication US20080269266A1, “NOVEL COMPOUNDS 747” (ASTRAZENECA AB, priority 2007, published 2008)
Converted amounts (≈) assume the structure as drawn.

Legend:
[1] = target: T1, human cytochrome P450 (CYP) 2C9 (Homo sapiens, UniProt P11712); experiment: Cytochrome P450 Inhibition Assay 2C9; type: in vitro ADME; details: test compound final concentrations 0.1-10 μM; substrate MFC
T1 construct: made in house; host or cells: yeast cell lines (microsomal fractions)
Description: (§1) The inhibitory potential (IC50) of test compounds against 5 human cytochrome P450 (CYP) isoforms (1A2, 2C9, 2C19, 3A4 and 2D6) was assessed using an automated fluorescent end point in vitro assay modified from Crespi (Crespi and Stresser, 2000). Microsomal subcellular fractions prepared from Yeast cell lines expressing each human CYP isoform were used as an enzyme source in this assay. The activity of the 5 major human CYPs was determined from the biotransformation of a number of coumarin substrates to fluorescent metabolites, in the presence of NADPH. […] Stock solutions of each CYP, with its respective substrate, were prepared in phosphate buffer pH7.4 (see Table 1) and 178 μl was added to the well of a black solid, flat bottom, 300 μl 96 well is microtitre plate (Corning Costar). […] After pre-incubating at 37° C. for 5 min the reactions were started with addition of NADPH (20 μl, concentration shown in Table 1). […] The appropriate solvent controls and substrate blanks were included in each experiment to assess control activity and identify any inherent fluorescence due to the test compounds. […] The plates were read on a fluorimeter (Spectrafluor Plus) at the appropriate excitation and emission wavelengths (listed in Table 2) and the percent activity, corrected for control, was plotted against the test compound concentration.

[2] = target: T2, human cytochrome P450 (CYP) 3A4 (Homo sapiens, UniProt P08684); experiment: Cytochrome P450 Inhibition Assay 3A4; type: in vitro ADME; details: test compound final concentrations 0.1-10 μM; substrate BFC
T2 construct: made in house; host or cells: yeast cell lines (microsomal fractions)
T2 sequence (P08684 whole entry): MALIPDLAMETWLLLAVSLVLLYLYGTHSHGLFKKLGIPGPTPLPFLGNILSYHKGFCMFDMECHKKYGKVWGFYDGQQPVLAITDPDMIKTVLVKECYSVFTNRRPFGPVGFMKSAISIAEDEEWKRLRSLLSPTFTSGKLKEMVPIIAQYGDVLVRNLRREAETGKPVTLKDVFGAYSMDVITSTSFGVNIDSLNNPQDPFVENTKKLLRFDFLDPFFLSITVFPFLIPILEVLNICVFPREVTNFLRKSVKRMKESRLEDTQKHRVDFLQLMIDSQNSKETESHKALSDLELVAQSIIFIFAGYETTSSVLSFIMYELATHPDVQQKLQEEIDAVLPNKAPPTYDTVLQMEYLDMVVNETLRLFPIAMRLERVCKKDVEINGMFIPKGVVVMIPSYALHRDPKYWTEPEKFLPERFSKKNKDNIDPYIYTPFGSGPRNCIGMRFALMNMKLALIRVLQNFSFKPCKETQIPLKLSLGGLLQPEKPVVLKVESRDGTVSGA
Description: as §1

[3] = target: T3, human cytochrome P450 (CYP) 2D6 (Homo sapiens, UniProt P10635); experiment: Cytochrome P450 Inhibition Assay 2D6; type: in vitro ADME; details: test compound final concentrations 0.1-10 μM; substrate MAMC
T3 construct: made in house; host or cells: yeast cell lines (microsomal fractions)
T3 sequence (P10635 whole entry): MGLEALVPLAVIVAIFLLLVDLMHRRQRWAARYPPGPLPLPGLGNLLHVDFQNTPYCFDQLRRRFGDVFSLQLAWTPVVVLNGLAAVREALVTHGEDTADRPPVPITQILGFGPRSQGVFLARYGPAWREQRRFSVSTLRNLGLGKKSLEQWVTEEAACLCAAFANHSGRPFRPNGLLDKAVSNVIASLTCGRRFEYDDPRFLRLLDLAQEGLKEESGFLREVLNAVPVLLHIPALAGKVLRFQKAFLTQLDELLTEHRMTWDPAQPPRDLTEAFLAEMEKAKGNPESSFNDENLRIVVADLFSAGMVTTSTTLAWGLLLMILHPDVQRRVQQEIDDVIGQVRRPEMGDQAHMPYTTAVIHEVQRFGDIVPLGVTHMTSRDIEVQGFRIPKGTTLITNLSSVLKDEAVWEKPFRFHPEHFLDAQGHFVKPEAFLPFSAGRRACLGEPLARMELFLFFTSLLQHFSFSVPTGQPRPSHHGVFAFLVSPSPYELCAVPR
Description: as §1

[4] = target: T4, human cytochrome P450 (CYP) 1A2 (Homo sapiens, UniProt P05177); experiment: Cytochrome P450 Inhibition Assay 1A2; type: in vitro ADME; details: test compound final concentrations 0.1-10 μM; substrate CEC
T4 construct: made in house; host or cells: yeast cell lines (microsomal fractions)
T4 sequence (P05177 1-516): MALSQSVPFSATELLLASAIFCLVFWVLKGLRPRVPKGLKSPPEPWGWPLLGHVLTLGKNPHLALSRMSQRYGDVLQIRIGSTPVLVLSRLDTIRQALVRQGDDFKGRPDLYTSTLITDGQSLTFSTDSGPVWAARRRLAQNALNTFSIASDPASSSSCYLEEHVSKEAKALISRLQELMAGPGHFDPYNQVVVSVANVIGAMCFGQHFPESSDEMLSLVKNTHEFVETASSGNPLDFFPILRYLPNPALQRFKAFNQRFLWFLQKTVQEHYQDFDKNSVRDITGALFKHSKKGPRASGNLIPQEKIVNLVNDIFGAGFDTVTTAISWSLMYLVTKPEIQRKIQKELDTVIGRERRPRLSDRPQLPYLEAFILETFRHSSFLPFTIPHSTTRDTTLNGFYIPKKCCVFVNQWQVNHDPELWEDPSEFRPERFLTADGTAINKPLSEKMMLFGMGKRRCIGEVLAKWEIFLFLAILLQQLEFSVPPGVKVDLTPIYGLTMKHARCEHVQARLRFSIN
Description: The inhibitory potential (IC50) of test compounds against 5 human cytochrome P450 (CYP) isoforms (1A2, 2C9, 2C19, 3A4 and 2D6) was assessed using an automated fluorescent end point in vitro assay modified from Crespi (Crespi and Stresser, 2000). Microsomal subcellular fractions prepared from Yeast cell lines expressing each human CYP isoform were used as an enzyme source in this assay. The activity of the 5 major human CYPs was determined from the biotransformation of a number of coumarin substrates to fluorescent metabolites, in the presence of NADPH. […] Comparison of the fluorescence observed in the presence of varying concentrations of test compound with that seen in its absence allowed an IC50 value to be calculated. Stock solutions of each CYP, with its respective substrate, were prepared in phosphate buffer pH7.4 (see Table 1) and 178 μl was added to the well of a black solid, flat bottom, 300 μl 96 well is microtitre plate (Corning Costar). […] The appropriate solvent controls and substrate blanks were included in each experiment to assess control activity and identify any inherent fluorescence due to the test compounds. […] The plates were read on a fluorimeter (Spectrafluor Plus) at the appropriate excitation and emission wavelengths (listed in Table 2) and the percent activity, corrected for control, was plotted against the test compound concentration.

[5] = Solubility in 0.1 M phosphate buffer pH 7.4; type: physicochemical; details: pH 7.4, 24 h
Description: Solubility values are determined by agitation of compounds in 0.1 M phosphate buffer at pH 7.4 for 24 h at 25° C. The supernatant is separated from undissolved material by double centrifugation and subsequently analyzed and quantified against a standard of known concentration in DMSO using generic HPLC-UV methodology coupled with mass spectral peak identification (J. Med. Chem., 2006, 49(23), 6672-6682).

T1 sequence (P11712 whole entry): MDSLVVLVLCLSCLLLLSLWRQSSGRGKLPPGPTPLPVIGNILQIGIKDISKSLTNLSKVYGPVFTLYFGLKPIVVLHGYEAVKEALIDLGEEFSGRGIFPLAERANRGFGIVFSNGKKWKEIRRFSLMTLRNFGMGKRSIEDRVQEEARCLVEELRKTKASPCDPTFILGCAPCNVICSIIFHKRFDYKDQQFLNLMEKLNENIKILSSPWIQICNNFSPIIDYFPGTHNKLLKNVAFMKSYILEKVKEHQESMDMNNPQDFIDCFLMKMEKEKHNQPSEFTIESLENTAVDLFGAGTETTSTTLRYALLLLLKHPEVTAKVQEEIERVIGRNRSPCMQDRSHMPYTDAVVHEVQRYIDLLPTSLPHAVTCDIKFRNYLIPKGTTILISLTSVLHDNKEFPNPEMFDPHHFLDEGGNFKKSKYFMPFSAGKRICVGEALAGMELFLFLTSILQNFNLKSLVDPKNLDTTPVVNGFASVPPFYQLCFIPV

Row | IC50 [1] [µM] | IC50 [2] [µM] | IC50 [3] [µM] | IC50 [4] [µM] | solubility at 24 h ([5]; phosphate buffer, 25 °C, pH 7.4, aqueous buffer, thermodynamic from solid) [µM] | solubility at 24 h ([5]; 25° C.) [µM] | Structure (SMILES)
1 | > 10 | > 10 | > 10 | 1.87 | 9.24 (≈ 4.01 µg/mL) | – | CCc1cc(Nc2cc(OC)nc(N3CCC[C@H]3c3cc(-c4ncccn4)no3)n2)n[nH]1 [Comparative Example A, (S)-6-Methoxy-2-{2-[3-(pyrimid-2-yl)isoxazol-5-yl]pyrrolidin-1-yl}-4-(5-ethyl-1H-pyrazol-3-ylamino)pyrimidine]
2 | > 10 | > 10 | > 10 | > 10 | – | 160 (≈ 67.1 µg/mL) | COc1cc(Nc2cc(C)n[nH]2)nc(N2CCC[C@H]2c2cc(-c3ncccn3)no2)n1 [Example 1, (S)-6-Methoxy-2-{2-[3-(pyrimid-2-yl)isoxazol-5-yl]pyrrolidin-1-yl}-4-(5-methyl-1H-pyrazol-3-ylamino)pyrimidine]
